Experimental data taken from patent US20260053798A1, “COMBINATION THERAPY FOR A RAS RELATED DISEASE OR DISORDER” (Revolution Medicines, Inc., priority 2023, published 2026).

How the values were obtained:
PIP3 levels = PIP3 levels in KRAS-mutant PDAC lines; assay type: cell-based; details: KRAS^G12D-mutant PDAC lines; FIG. 5 right
pERK (MAPK signaling) = pERK (MAPK signaling) levels in KRAS mutant cell lines; assay type: cell-based; details: FIG. 6
PI3K activity = PI3K activity in KRAS wild-type and KRAS^G12X mutant lines; assay type: cell-based; details: for PI3K activity: FIG. 5 left
PDAC KRAS^AMP models = experiment: RMC-6236 plus chemotherapy in PDAC KRAS^AMP models; assay type: in vivo; details: FIG. 4

SMILES	PIP3 levels (PIP3 levels)	levels of pERK (MAPK signaling) (pERK (MAPK signaling); KRAS^G12D mutant cell lines)	levels of pERK (MAPK signaling) (pERK (MAPK signaling); KRAS^G12R mutant cell lines)	PI3K activity (PI3K activity; KRAS^G12C)	PI3K activity (PI3K activity; KRAS^G12D)	PI3K activity (PI3K activity; KRAS^G12R line)	PI3K and MAPK activity (summary statement) (PI3K activity; KRAS^G12R lines)	PI3K activity (PI3K activity; KRAS^G12V)	PI3K activity (PI3K activity; KRAS^WT)	PI3K and MAPK activity (summary statement) (PI3K activity; isogenic and mutant KRAS^G12D lines)	activity and durability in combination (PDAC KRAS^AMP models; combined with FOLFIRINOX)	activity and durability in combination (PDAC KRAS^AMP models; combined with GEM+Abraxane)	monotherapy activity versus chemotherapy (PDAC KRAS^AMP models; monotherapy, EGFR-mutant PDAC (so in the source))
CCn1c(-c2cc(N3CCN(C4CC4)CC3)cnc2[C@H](C)OC)c2c3cc(ccc31)-c1csc(n1)C[C@H](NC(=O)C1[C@H]3COC[C@@H]13)C(=O)N1CCC[C@H](N1)C(=O)OCC(C)(C)C2 (stereo partly shown) [RMC-7977]	suppresses	decreased	decreased	moderate inhibitory effect	completely suppressed	no effect	not	moderate inhibitory effect	completely suppressed	suppresses both PI3K and MAPK activity			
CCn1c(-c2cc(N3CCN(C)CC3)cnc2[C@H](C)OC)c2c3cc(ccc31)-c1csc(n1)C[C@H](NC(=O)[C@H]1C[C@@H]1C)C(=O)N1CCC[C@H](N1)C(=O)OCC(C)(C)C2 [RMC-6236]											combination benefit resulting in increased activity and durability	combination benefit resulting in increased activity and durability	comparable activity against EGFR-mutant PDAC as chemotherapy
